# In ChEMBL document CHEMBL1142670, “Synthesis, nicotinic acetylcholine receptor binding, and antinociceptive properties of 3'-substituted deschloroepibatidine analogues. Novel nicotinic antagonists” (J Med Chem, 2005):
# What was measured:
# [1] = target: Neuronal acetylcholine receptor; alpha4/beta2 (Rattus norvegicus, UniProt P09483+P12390); assay: Inhibition of [3H]epibatidine binding to Nicotinic acetylcholine receptor alpha4-beta2 in rat cerebral cortex; type: tissue-based
# [2] = organism: Mus musculus; assay: Effective dose to induce antinociception in mouse determined in hotplate test; type: functional
# [3] = system: Mus musculus; assay: Anesthetic dose in hotplate test in mouse; type: functional
# [4] = organism: Mus musculus; assay: Effective dose to induce hypothermia in mouse was determined; type: functional
# [5] = system: Mus musculus; assay: Effect on body temperature of mouse was determined at 0.01 ug/kg; type: functional
# [6] = target: Neuronal acetylcholine receptor subunit alpha-7 (Rattus norvegicus, UniProt Q05941); assay: Inhibition of [125I]-iodo-MLA binding to Nicotinic acetylcholine receptor alpha-7 in rat cerebral cortex; type: tissue-based
# [7] = organism: Mus musculus; assay: Effective dose to induce spontaneous activity in mouse was determined; type: functional
# [8] = organism: Mus musculus; assay: Effective dose to induce antinociception in mouse determined in tail-flick test; type: functional
# [9] = system: Mus musculus; assay: Anesthetic dose in mouse in tail-flick test; type: functional
# [10] = system: Mus musculus; assay: Effect on body temperature of mouse was determined at 0.02 ug/kg; type: functional
# [11] = system: Mus musculus; assay: Anesthetic effect in hotplate test in mouse at 0.1 ug/kg; type: functional
# [12] = system: Mus musculus; assay: Effect on body temperature of mouse was determined at 10 ug/kg; type: functional
# [13] = system: Mus musculus; assay: Anesthetic effect in hotplate test in mouse at 10 ug/kg; type: functional
# [14] = system: Mus musculus; assay: Anesthetic effect in mouse in hotplate test at 20 ug/kg; type: functional
# [15] = Effect on body temperature of mouse was measured in tail-flick test at the rate 500 ug/kg; type: functional
# [16] = system: Mus musculus; assay: Anesthetic effect in mouse in hotplate test at 10 ug/kg; type: functional
# [17] = Mus musculus, Tail, read-out: ED50
# Sequence of Neuronal acetylcholine receptor subunit alpha-7 (Q05941 whole entry): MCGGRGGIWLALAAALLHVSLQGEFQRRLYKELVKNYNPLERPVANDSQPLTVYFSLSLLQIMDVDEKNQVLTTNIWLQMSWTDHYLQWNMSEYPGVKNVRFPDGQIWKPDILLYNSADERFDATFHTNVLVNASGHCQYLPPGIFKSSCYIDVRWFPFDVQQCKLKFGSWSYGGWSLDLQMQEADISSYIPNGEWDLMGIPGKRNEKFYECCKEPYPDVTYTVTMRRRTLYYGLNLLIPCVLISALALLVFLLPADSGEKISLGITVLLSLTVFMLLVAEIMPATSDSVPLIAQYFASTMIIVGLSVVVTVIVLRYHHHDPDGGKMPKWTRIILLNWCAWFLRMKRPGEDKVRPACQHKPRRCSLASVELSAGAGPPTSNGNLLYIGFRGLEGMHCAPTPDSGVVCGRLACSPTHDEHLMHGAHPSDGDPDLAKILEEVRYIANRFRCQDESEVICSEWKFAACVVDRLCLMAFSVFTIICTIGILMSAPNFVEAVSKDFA
# Sequence of Neuronal acetylcholine receptor; alpha4/beta2 (P09483 whole entry): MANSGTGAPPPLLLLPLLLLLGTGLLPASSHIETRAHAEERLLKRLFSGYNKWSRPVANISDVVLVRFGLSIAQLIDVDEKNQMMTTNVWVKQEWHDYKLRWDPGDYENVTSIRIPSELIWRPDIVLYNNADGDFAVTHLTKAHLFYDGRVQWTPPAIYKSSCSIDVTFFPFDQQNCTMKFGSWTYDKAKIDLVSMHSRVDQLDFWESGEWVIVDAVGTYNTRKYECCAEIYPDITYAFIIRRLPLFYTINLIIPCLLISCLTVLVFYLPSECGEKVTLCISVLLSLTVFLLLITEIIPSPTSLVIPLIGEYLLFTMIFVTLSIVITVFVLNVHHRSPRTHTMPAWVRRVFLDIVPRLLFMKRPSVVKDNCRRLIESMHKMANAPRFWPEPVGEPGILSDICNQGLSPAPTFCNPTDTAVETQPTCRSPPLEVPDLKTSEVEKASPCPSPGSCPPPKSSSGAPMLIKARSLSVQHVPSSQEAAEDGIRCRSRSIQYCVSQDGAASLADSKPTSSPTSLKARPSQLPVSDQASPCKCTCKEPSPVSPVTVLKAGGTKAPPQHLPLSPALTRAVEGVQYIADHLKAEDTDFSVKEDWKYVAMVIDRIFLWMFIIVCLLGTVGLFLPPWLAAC
# Sequence of Neuronal acetylcholine receptor; alpha4/beta2 (P12390 whole entry): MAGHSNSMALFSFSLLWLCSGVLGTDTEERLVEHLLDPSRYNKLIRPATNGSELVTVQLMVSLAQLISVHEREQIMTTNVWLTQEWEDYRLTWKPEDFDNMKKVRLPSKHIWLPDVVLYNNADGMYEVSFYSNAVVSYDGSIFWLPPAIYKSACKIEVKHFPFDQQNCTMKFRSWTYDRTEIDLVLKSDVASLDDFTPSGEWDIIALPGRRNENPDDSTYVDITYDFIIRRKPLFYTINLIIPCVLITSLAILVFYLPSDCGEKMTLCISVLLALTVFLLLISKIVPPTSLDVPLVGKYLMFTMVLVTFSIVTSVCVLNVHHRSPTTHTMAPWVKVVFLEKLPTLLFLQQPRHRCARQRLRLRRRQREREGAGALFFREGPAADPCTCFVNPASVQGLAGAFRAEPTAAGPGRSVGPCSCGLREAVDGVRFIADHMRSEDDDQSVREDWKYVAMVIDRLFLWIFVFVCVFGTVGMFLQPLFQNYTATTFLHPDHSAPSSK
compound,measurement,setting,value
Nc1cncc(C2CC3CCC2N3)c1 (centres undefined),Ki,[1],0.097 nM
same,ED50,"[2]; Mus musculus, read-out: ED50",3100 µg/kg
same,AD50,[3],6.9 µg/kg
same,ED50,"[4]; Mus musculus, read-out: ED50",2700 µg/kg
same,Effect,[5],0%
same,Ki,[6],732 nM
same,ED50,"[7]; Mus musculus, read-out: ED50",900 µg/kg
same,ED50,[8]; [17],4700 µg/kg
same,AD50,[9],1.6 µg/kg
Clc1cncc(C2CC3CCC2N3)c1 (centres undefined),Ki,[1],0.055 nM
same,ED50,"[2]; Mus musculus, read-out: ED50",230 µg/kg
same,AD50,[3],15 µg/kg
same,ED50,"[4]; Mus musculus, read-out: ED50",150 µg/kg
same,Ki,[6],50.6 nM
same,Effect,[10],0%
same,ED50,"[7]; Mus musculus, read-out: ED50",40 µg/kg
same,ED50,[8]; [17],300 µg/kg
same,AD50,[9],0.2 µg/kg
Brc1cncc(C2CC3CCC2N3)c1 (centres undefined),Ki,[1],0.05 nM
same,ED50,"[2]; Mus musculus, read-out: ED50",570 µg/kg
same,AD50,[3],0.78 µg/kg
same,ED50,"[4]; Mus musculus, read-out: ED50",70 µg/kg
same,Effect,[5],0%
same,Ki,[6],164 nM
same,ED50,"[7]; Mus musculus, read-out: ED50",100 µg/kg
same,ED50,[8]; [17],1200 µg/kg
same,AD50,[9],15 µg/kg
C#Cc1cncc(C2CC3CCC2N3)c1 (centres undefined),Ki,[1],0.02 nM
same,ED50,"[2]; Mus musculus, read-out: ED50",560 µg/kg
same,ED50,"[4]; Mus musculus, read-out: ED50",50 µg/kg
same,Effect,[5],0%
same,Anesthetic effect,[11],0%
same,Ki,[6],5 nM
same,ED50,"[7]; Mus musculus, read-out: ED50",1 µg/kg
same,ED50,[8]; [17],1000 µg/kg
same,AD50,[9],6 µg/kg
C=Cc1cncc(C2CC3CCC2N3)c1 (centres undefined),Ki,[1],0.26 nM
same,ED50,"[2]; Mus musculus, read-out: ED50",800 µg/kg
same,AD50,[3],100 µg/kg
same,ED50,"[4]; Mus musculus, read-out: ED50",450 µg/kg
same,Effect,[5],0%
same,Ki,[6],344 nM
same,ED50,"[7]; Mus musculus, read-out: ED50",200 µg/kg
same,ED50,[8]; [17],1000 µg/kg
same,AD50,[9],2.4 µg/kg
CN1C2CCC1C(c1cncc(I)c1)C2 (centres undefined),Effect,[12],0%
same,Ki,[1],0.029 nM
same,ED50,"[2]; Mus musculus, read-out: ED50",370 µg/kg
same,ED50,"[4]; Mus musculus, read-out: ED50",340 µg/kg
same,Anesthetic effect,[13],0%
same,Ki,[6],33.2 nM
same,ED50,"[7]; Mus musculus, read-out: ED50",30 µg/kg
same,ED50,[8]; [17],600 µg/kg
same,AD50,[9],0.04 µg/kg
Fc1cncc(C2CC3CCC2N3)c1 (centres undefined),ED50,"[2]; Mus musculus, read-out: ED50",50 µg/kg
same,ED50,"[4]; Mus musculus, read-out: ED50",150 µg/kg
same,Anesthetic effect,[14],35%
same,Ki,[6],> 1000 nM
same,Effect,[10],0%
same,ED50,"[7]; Mus musculus, read-out: ED50",23 µg/kg
same,ED50,[8]; [17],80 µg/kg
same,AD50,[9],0.07 µg/kg
"Ic1cncc(C2CC3CCC2N3)c1 (single isomer, unassigned; (+))",Ki,[1],0.045 nM
same,ED50,[2],60 µg/kg
same,Anesthetic effect,[14],15%
same,Ki,[6],179 nM
same,ED50,[7],91 µg/kg
same,Increase,[15],6%
same,ED50,[8],780 µg/kg
same,AD50,[9],1.2 µg/kg
"Ic1cncc(C2CC3CCC2N3)c1 (single isomer, unassigned; (-))",Ki,[1],0.048 nM
same,ED50,[2],210 µg/kg
same,ED50,[4],480 µg/kg
same,Anesthetic effect,[16],15%
same,Ki,[6],156 nM
same,ED50,[7],351 µg/kg
same,ED50,[8],940 µg/kg
same,AD50,[9],0.11 µg/kg
Ic1cncc(C2CC3CCC2N3)c1 (stereo in doubt; 3d),ED50,[2],900 µg/kg
same,AD50,[3],0.24 µg/kg
same,ED50,"[4]; Mus musculus, read-out: ED50",780 µg/kg
same,Effect,[5],0%
same,Ki,[6],150 nM
same,ED50,[7],130 µg/kg
same,ED50,[8]; [17],800 µg/kg
same,AD50,[9],0.1 µg/kg
Clc1ccc(C2CC3CCC2N3)cn1 (centres undefined) [EPIBATIDINE],ED50,"[2]; Mus musculus, read-out: ED50",4 µg/kg
same,ED50,"[4]; Mus musculus, read-out: ED50",4 µg/kg
same,ED50,"[7]; Mus musculus, read-out: ED50",1 µg/kg
same,ED50,[8]; [17],6 µg/kg
CN1CCC[C@H]1c1cccnc1 [NICOTINE],ED50,"[2]; Mus musculus, read-out: ED50",650 µg/kg
same,ED50,"[4]; Mus musculus, read-out: ED50",1000 µg/kg
same,ED50,"[7]; Mus musculus, read-out: ED50",500 µg/kg
same,ED50,[8]; [17],1300 µg/kg
